Results: US4071680A, “5'-Deoxy-5-fluoropyrimidine nucleosides” (Hoffmann-La Roche Inc., priority 1976, dated 1978)
Read-outs that look alike come from different tables or passages of the source.

Columns and labels:
Sarcoma 180 Tumor = type: in vivo, albino mice
Description: (§1) All compounds were dissolved in water for administration to animals.
(§2) Small pieces of tumor (20-30mg) were implanted subcutaneously by trocar into the right inguinal region of 18-20 g albino mice. The fragments were obtained from donors bearing firm subcutaneous tumors implanted 7-10 days previously. Treatment was begun on the day of implantation and continued once daily for a total of 8 treatments. The animals were sacrificed 8 days after implantation and the tumors excised and weighed. The ratio of the average weight of the tumors from the untreated control group (C) divided by the average weight of the tumors from the treated group (T) was calculated. The percent inhibition of tumor growth was calculated from the formula:
(§3) % Inhibition = 100 (C-T)/C . The compound was considered to be active at a particular dose if % inhibition ≥ 50%.
(§4) Results obtained from experiments, utilizing compounds of the present invention and representative prior art compounds are summarized below in Table 1.
Effect of Pyrimidine Nucleosides Against Sarcoma 180 Tumor in Mice
(active doses are those which produce ≥50% tumor inhibition)

Ehrlich Carcinoma = type: in vivo, albino mice
Description: as §1, §2, §3
The solid form of this tumor was produced by subcutaneous implantation of 0.5 ml of a 1-10 saline - diluted ascitic tumor cell suspensions derived from 18-20 g albino donor mice implanted 7-10 days previously. Treatment and evaluation procedures were identical to those used for Sarcoma 180.
as §4
Effect of pyrimidine Nucleosides Against Ehrlich Carcinoma in Mice

Yoshida sarcoma = settings: Japanese Pat. No. 51-086481; cited from earlier work
Burkitt's cell cultures = settings: Falco and Fox, J. Med. Chem. 11, 148 (1968); cited from earlier work
[1] = tested on: L1210 leukemia cell cultures; settings: Falco and Fox, J. Med. Chem. 11, 148 (1968); cited from earlier work

| Structure (SMILES) | Percent Inhibition of tumor growth (Sarcoma 180 Tumor; 6.25 mg/kg × 8, po) | Percent Inhibition of tumor growth (Sarcoma 180 Tumor; 12.5 mg/kg × 8, ip) | Percent Inhibition of tumor growth (Sarcoma 180 Tumor; 12.5 mg/kg × 8, po) | Percent Inhibition of tumor growth (Sarcoma 180 Tumor; 25 mg/kg × 8, ip) | Percent Inhibition of tumor growth (Sarcoma 180 Tumor; 25 mg/kg × 8, po) | Percent Inhibition of tumor growth (Sarcoma 180 Tumor; 50 mg/kg × 8, ip) | Percent Inhibition of tumor growth (Sarcoma 180 Tumor; 50 mg/kg × 8, po) | Percent Inhibition of tumor growth (Sarcoma 180 Tumor; 100 mg/kg × 8, ip) | Percent Inhibition of tumor growth (Sarcoma 180 Tumor; 100 mg/kg × 8, po) | Percent Inhibition of tumor growth (Sarcoma 180 Tumor; 200 mg/kg × 8, ip) | Percent Inhibition of tumor growth (Sarcoma 180 Tumor; 200 mg/kg × 8, po) | Percent Inhibition of tumor growth (Sarcoma 180 Tumor; 400 mg/kg × 8, ip) | Percent Inhibition of tumor growth (Sarcoma 180 Tumor; 400 mg/kg × 8, po) | Percent Inhibition of tumor growth (Ehrlich Carcinoma; 25 mg/kg × 8, ip) | Percent Inhibition of tumor growth (Ehrlich Carcinoma; 25 mg/kg × 8, po) | Percent Inhibition of tumor growth (Ehrlich Carcinoma; 50 mg/kg × 8, ip) | Percent Inhibition of tumor growth (Ehrlich Carcinoma; 50 mg/kg × 8, po) | Percent Inhibition of tumor growth (Ehrlich Carcinoma; 100 mg/kg × 8, ip) | Percent Inhibition of tumor growth (Ehrlich Carcinoma; 100 mg/kg × 8, po) | Percent Inhibition of tumor growth (Ehrlich Carcinoma; 200 mg/kg × 8, ip) | also measured |
| --- | --- | --- | --- | --- | --- | --- | --- | --- | --- | --- | --- | --- | --- | --- | --- | --- | --- | --- | --- | --- | --- |
| C[C@H]1O[C@@H](n2cc(F)c(N)nc2=O)[C@H](O)[C@@H]1O [5'-Deoxy-5-Fluorocytidine] | 26% | 37% | 62% | 64% | 76% | 72% | 65% | 86% | 76% | 93% | 82% | 95% | 92% | 45% | 37% | 57% | 58% | 65% | 71% | 72% | Percent Inhibition of tumor growth (Ehrlich Carcinoma; 200 mg/kg × 8, po): 80%; Percent Inhibition of tumor growth (Ehrlich Carcinoma; 400 mg/kg × 8, ip): 91%; Percent Inhibition of tumor growth (Ehrlich Carcinoma; 400 mg/kg × 8, po): 95%; Percent Inhibition of tumor growth (Ehrlich Carcinoma; 800 mg/kg × 8, po): 99% |
| C[C@H]1O[C@@H](n2ccc(=O)[nH]c2=O)[C@H](O)[C@@H]1O [5'-Deoxyuridine, reference compound] | – | – | – | – | – | – | – | 41% | – | 9% | – | – | – | – | – | – | – | – | – | – | – |
| C[C@H]1O[C@@H](n2cc(F)c(=O)[nH]c2=O)C[C@@H]1O [2',5'-Dideoxy-5-Fluorouridine, reference compound] | – | – | – | – | – | – | – | 37% | – | 68% | 34% | 81% | – | – | – | – | – | – | – | – | inhibition of growth of Yoshida sarcoma (Yoshida sarcoma): inhibiting the growth of Yoshida sarcoma |
| C[C@H]1O[C@@H](n2ccc(N)nc2=O)[C@@H](O)[C@@H]1O [1-(5'-deoxy-β-D-arabinofuranosyl) cytosine] | – | – | – | – | – | – | – | – | – | – | – | – | – | – | – | – | – | – | – | – | activity against Burkitt's cell cultures (Burkitt's cell cultures): inactive; activity against L1210 leukemia cell cultures [1]: inactive |
| C[C@H]1O[C@@H](n2cc(F)c(=O)[nH]c2=O)[C@H](O)[C@@H]1O [5'-Deoxy-5-Fluorouridine] | 68% | 43% | 73% | 67% | 75% | 89% | 80% | 88% | 83% | 88% | 90% | – | 90% | 43% | 27% | 59% | 56% | 71% | 70% | 86% | Percent Inhibition of tumor growth (Sarcoma 180 Tumor; 1.56 mg/kg × 8, po): 30%; Percent Inhibition of tumor growth (Sarcoma 180 Tumor; 3.12 mg/kg × 8, po): 51%; Percent Inhibition of tumor growth (Ehrlich Carcinoma; 200 mg/kg × 8, po): 90%; Percent Inhibition of tumor growth (Ehrlich Carcinoma; 400 mg/kg × 8, ip): 98%; Percent Inhibition of tumor growth (Ehrlich Carcinoma; 400 mg/kg × 8, po): 98%; Percent Inhibition of tumor growth (Ehrlich Carcinoma; 800 mg/kg × 8, po): 99% |
